The source made the active and inactive calls. No cut-off for these calls is given here.
Assays:
Mus musculus [1] = species: Mus musculus; assay: Antioxidant activity in mouse brain homogenate assessed as inhibition of FeSO4/ascorbic acid induced lipid autoxidation by measuring reduction in TBARS formation at 0.1 mM preincubated with compound for 30 mins followed by FeSO4/ascorbic acid addition and measured after 1 hrs by TBARS assay; assay type: functional; settings: time 1.5 hrs
[2] = Antioxidant activity assessed as DPPH radical scavenging capacity at 1 mM incubated for 30 mins under dark condition by absorbance based assay; assay type: functional
Mus musculus [3] = species: Mus musculus; assay: Antioxidant activity in mouse brain homogenate assessed as inhibition of FeSO4/ascorbic acid induced lipid autoxidation by measuring reduction in TBARS formation at 1 mM preincubated with compound for 30 mins followed by FeSO4/ascorbic acid addition and measured after 1 hrs by TBARS assay; assay type: functional; settings: time 1.5 hrs
[4] = Antioxidant activity assessed as DPPH radical scavenging capacity at 0.1 mM incubated for 30 mins under dark condition by absorbance based assay; assay type: functional
[5] = Hemolytic activity in mouse RBC assessed as hemolysis at 0.1 mM measured after 5 hrs; assay type: toxicity, cell-based, Erythrocyte; settings: mouse red blood cells, read-out: Activity
Erythrocyte [6] = assay: Antioxidant activity in H2O2-induced mouse RBC cells assessed as inhibition of ferryl-hemoglobin formation at 0.01 mM preincubated with compound for 30 mins followed by H2O2 addition and measured after 5 hrs; assay type: functional, cell-based; settings: time 5.5 hrs
Erythrocyte [7] = assay: Antioxidant activity in mouse RBC assessed as inhibition of H2O2-induced hemolytic activity at 0.01 mM preincubated with compound for 30 mins followed by H2O2 addition and measured for 5 hrs; assay type: functional, cell-based; settings: time 5.5 hrs
Erythrocyte [8] = assay: Antioxidant activity in H2O2-induced mouse RBC cells assessed as inhibition of methemoglobin formation at 0.01 mM preincubated with compound for 30 mins followed by H2O2 addition and measured after 5 hrs; assay type: functional, cell-based; settings: time 5.5 hrs
Mus musculus [9] = species: Mus musculus; assay: Antioxidant activity in mouse brain homogenate assessed as inhibition of FeSO4/ascorbic acid induced lipid autoxidation by measuring reduction in TBARS formation at 0.5 mM preincubated with isopropanol for 30 mins followed by compound addition for 30 mins and measured 1 hrs after FeSO4/ascorbic acid addition by TBARS assay; assay type: functional; settings: time 1.5 hrs
Erythrocyte [10] = assay: Antioxidant activity in mouse RBC assessed as inhibition of H2O2-induced hemolytic activity at 0.1 mM preincubated with compound for 30 mins followed by H2O2 addition and measured after 5 hrs; assay type: functional, cell-based; settings: time 5.5 hrs
Erythrocyte [11] = assay: Antioxidant activity in H2O2-induced mouse RBC cells assessed as reduction in metHB/oxyHB ratio at 0.01 mM preincubated with compound for 30 mins followed by H2O2 addition and measured after 5 hrs; assay type: functional, cell-based; settings: time 5.5 hrs
Erythrocyte [12] = assay: Antioxidant activity in H2O2-induced mouse RBC assessed as inhibition of lipid peroxidation by measuring MDA formation at 0.01 mM preincubated with compound for 30 mins followed by H2O2 addition and measured after 4 hrs by spectrophotometric analysis; assay type: functional, cell-based; settings: time 4.5 hrs
Erythrocyte [13] = assay: Antioxidant activity in mouse RBC assessed as inhibition of H2O2-induced hemolytic activity at 0.01 mM preincubated with compound for 30 mins followed by H2O2 addition and measured at 1 to 3 hrs; assay type: functional, cell-based; settings: time 1.5-3.5 hrs

| SMILES | Activity (Mus musculus [1]) | Activity [2] | Activity (Mus musculus [3]) | Activity [4] | hemolysis at 5 h, 100 µM [5] | Activity (Erythrocyte [6]) | Activity (Erythrocyte [7]) | Activity (Erythrocyte [8]) | Activity (Mus musculus [9]) | Activity (Erythrocyte [10]) | Activity (Erythrocyte [11]) | Activity (Erythrocyte [12]) | Activity (Erythrocyte [13]) |
| --- | --- | --- | --- | --- | --- | --- | --- | --- | --- | --- | --- | --- | --- |
| C=CCc1cc(OC)c2c(c1OC)OCO2 [APIOL] | Active | 0.3% | Active | 0.05% | ≤ 10% | Active | Active | Active | inactive | inactive |  |  |  |
| Cc1cc(C(C)(C)C)c(O)c(C(C)(C)C)c1 | Active |  |  | 72% |  | Active |  | Active |  |  | Active | Active |  |
| C=CCc1ccc2c(c1)OCO2 [SAFROLE] | inactive | 10.6% | Active | 1.26% | ≤ 10% | Active | Active | Active |  | inactive |  |  |  |
| C=CCc1ccccc1 | inactive | 4.29% | Active | 1.01% |  | Active | Active | Active |  | inactive |  |  |  |
| Cc1c(C)c2c(c(C)c1O)CCC(C)(C(=O)O)O2 (stereo unspecified) | Active |  |  | 94.9% |  |  |  |  |  |  |  |  |  |
| C=CCc1cc2c(c(OC)c1OC)OCO2 [DILLAPIOLE] | Active | 3.94% | Active | 0.38% | ≤ 10% | Active | Active | Active | inactive | Active | Active |  |  |
| C=CCc1cc(OC)c2c(c1)OCO2 [ELEMICIN] | Active | 5.25% | Active | 1.31% |  | Active | Active | Active | inactive | Active |  |  |  |
| C=CCc1ccc(OC)cc1 | inactive | 1.16% | Active | 0.25% |  | Active | Active | Active |  | inactive |  |  |  |
| C=CCc1c(O)c(OC)c2c(c1OC)OCO2 | Active | 90.2% | Active | 88.9% |  |  | Active |  | inactive |  |  | Active | Active |
| C=CCc1c(OC)c(OC)c2c(c1OC)OCO2 | Active | 4.3% | Active | 0.91% |  |  | inactive |  | inactive |  |  | inactive |  |
| C=CCc1cc(OC)c(OC)c(OC)c1OC | inactive | 1.47% | Active | 0.1% |  | Active | Active | Active |  | inactive |  |  |  |

Source: ChEMBL document CHEMBL5244224, “Antioxidant Activity of Natural Allylpolyalkoxybenzene Plant Essential Oil Constituents” (J Nat Prod, 2019)
